What all share (experiment): relative viability (nuclei count vs DMSO), 5 days (fraction); higher = more cells survive
Compound in the test “CAP-232 + Palbociclib”: C[C@H]([C@@H](C(=O)N)NC(=O)[C@@H]1CSSC[C@@H](C(=O)N[C@H](C(=O)N[C@@H](C(=O)N[C@H](C(=O)N1)CCCCN)CC2=CNC3=CC=CC=C32)CC4=CC=C(C=C4)O)NC(=O)[C@@H](CC5=CC=CC=C5)N)O [CAP-232] + CC(=O)c1c(C)c2cnc(Nc3ccc(N4CCNCC4)cn3)nc2n(C2CCCC2)c1=O [Palbociclib] (partner 0.5 µM)
In outline:
(§1)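 Each reported value is a median over duplicate plates. It expresses relative viability: treated-well nuclei count divided by vehicle-well nuclei count. Lung cancer cell lines in 1536-well plates were dosed by pin tool a day after seeding, alone with one drug or with a fixed anchor-drug dose plus five library-drug doses (not always all listed) in √10 steps, and nuclei were counted after 5 days.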

Compound in the test “CAP-232 + Pictilisib”: C[C@H]([C@@H](C(=O)N)NC(=O)[C@@H]1CSSC[C@@H](C(=O)N[C@H](C(=O)N[C@@H](C(=O)N[C@H](C(=O)N1)CCCCN)CC2=CNC3=CC=CC=C32)CC4=CC=C(C=C4)O)NC(=O)[C@@H](CC5=CC=CC=C5)N)O [CAP-232] + CS(=O)(=O)N1CCN(Cc2cc3nc(-c4cccc5[nH]ncc45)nc(N4CCOCC4)c3s2)CC1 [Pictilisib] (partner 1 µM)
Put shortly:
as §1

Compound in the test “CAP-232 + Trametinib”: C[C@H]([C@@H](C(=O)N)NC(=O)[C@@H]1CSSC[C@@H](C(=O)N[C@H](C(=O)N[C@@H](C(=O)N[C@H](C(=O)N1)CCCCN)CC2=CNC3=CC=CC=C32)CC4=CC=C(C=C4)O)NC(=O)[C@@H](CC5=CC=CC=C5)N)O [CAP-232] + CC(=O)Nc1cccc(-n2c(=O)n(C3CC3)c(=O)c3c(Nc4ccc(I)cc4F)n(C)c(=O)c(C)c32)c1 [Trametinib] (partner 0.02 µM)
Put shortly:
as §1

Compound in the test “CAP-232 + Luminespib”: C[C@H]([C@@H](C(=O)N)NC(=O)[C@@H]1CSSC[C@@H](C(=O)N[C@H](C(=O)N[C@@H](C(=O)N[C@H](C(=O)N1)CCCCN)CC2=CNC3=CC=CC=C32)CC4=CC=C(C=C4)O)NC(=O)[C@@H](CC5=CC=CC=C5)N)O [CAP-232] + CCNC(=O)c1noc(-c2cc(C(C)C)c(O)cc2O)c1-c1ccc(CN2CCOCC2)cc1 [Luminespib] (partner 0.01 µM)
In outline:
as §1

Compound in the test “CAP-232 + Lapatinib”: C[C@H]([C@@H](C(=O)N)NC(=O)[C@@H]1CSSC[C@@H](C(=O)N[C@H](C(=O)N[C@@H](C(=O)N[C@H](C(=O)N1)CCCCN)CC2=CNC3=CC=CC=C32)CC4=CC=C(C=C4)O)NC(=O)[C@@H](CC5=CC=CC=C5)N)O [CAP-232] + CS(=O)(=O)CCNCc1ccc(-c2ccc3ncnc(Nc4ccc(OCc5cccc(F)c5)c(Cl)c4)c3c2)o1 [Lapatinib] (partner 2 µM)
Put shortly: as §1

Take NCI-H1793: the relative viability in the test with CAP-232 + Palbociclib (first compound 0.4 µM) was determined as 0.401; with CAP-232 + Palbociclib (first compound 1.265 µM) it was 0.313; with CAP-232 + Palbociclib (first compound 4 µM), 0.303; with CAP-232 + Palbociclib (first compound 12.65 µM), 0.324; with CAP-232 + Pictilisib (first compound 0.4 µM) it was 0.334; in the test with CAP-232 + Pictilisib (first compound 1.265 µM), 0.284. For the same cell line, the relative viability amounted to 0.31 with CAP-232 + Pictilisib (first compound 4 µM); 0.283 with CAP-232 + Pictilisib (first compound 12.65 µM); 0.342 with CAP-232 + Trametinib (first compound 0.4 µM); 0.396 in the test with CAP-232 + Trametinib (first compound 1.265 µM); 0.356 with CAP-232 + Trametinib (first compound 4 µM); 0.493 with CAP-232 + Trametinib (first compound 12.65 µM). Further, the relative viability in the test with CAP-232 + Luminespib (first compound 0.4 µM) stood at 0.199; in the test with CAP-232 + Luminespib (first compound 1.265 µM), 0.195; with CAP-232 + Luminespib (first compound 4 µM), 0.451; with CAP-232 + Luminespib (first compound 12.65 µM), 0.165; with CAP-232 + Lapatinib (first compound 0.4 µM), 0.563; with CAP-232 + Lapatinib (first compound 1.265 µM), 0.625. In addition, the relative viability with CAP-232 + Lapatinib (first compound 4 µM) is 0.75; with CAP-232 + Lapatinib (first compound 12.65 µM) it was 0.745.
For the cell line NCI-H1915, the relative viability with CAP-232 + Palbociclib (first compound 0.4 µM) is 0.5; with CAP-232 + Palbociclib (first compound 1.265 µM), 0.538; in the test with CAP-232 + Palbociclib (first compound 4 µM), 0.524; with CAP-232 + Palbociclib (first compound 12.65 µM), 0.511; in the test with CAP-232 + Pictilisib (first compound 0.4 µM) it was 0.878; with CAP-232 + Pictilisib (first compound 1.265 µM), 0.852. The relative viability with CAP-232 + Pictilisib (first compound 4 µM) came out at 1.01; in the test with CAP-232 + Pictilisib (first compound 12.65 µM), 0.914; with CAP-232 + Trametinib (first compound 0.4 µM), 0.207; with CAP-232 + Trametinib (first compound 1.265 µM), 0.307; with CAP-232 + Trametinib (first compound 4 µM), 0.291; in the test with CAP-232 + Trametinib (first compound 12.65 µM), 0.371. Besides, the relative viability with CAP-232 + Luminespib (first compound 0.4 µM) stood at 0.946; in the test with CAP-232 + Luminespib (first compound 1.265 µM), 0.798; in the test with CAP-232 + Luminespib (first compound 4 µM), 0.806; with CAP-232 + Luminespib (first compound 12.65 µM), 0.736; with CAP-232 + Lapatinib (first compound 0.4 µM) it was 1.04; in the test with CAP-232 + Lapatinib (first compound 1.265 µM), 0.957. In addition, the relative viability in the test with CAP-232 + Lapatinib (first compound 4 µM) turned out to be 1.04; with CAP-232 + Lapatinib (first compound 12.65 µM) it was 0.982.
Take NCI-H1944: the relative viability amounted to 0.393 with CAP-232 + Palbociclib (first compound 0.4 µM); 0.31 in the test with CAP-232 + Palbociclib (first compound 1.265 µM); 0.326 with CAP-232 + Palbociclib (first compound 4 µM); 0.325 with CAP-232 + Palbociclib (first compound 12.65 µM); 0.371 in the test with CAP-232 + Pictilisib (first compound 0.4 µM); 0.33 in the test with CAP-232 + Pictilisib (first compound 1.265 µM). In addition, the relative viability with CAP-232 + Pictilisib (first compound 4 µM) was found to be 0.394; in the test with CAP-232 + Pictilisib (first compound 12.65 µM), 0.354; in the test with CAP-232 + Trametinib (first compound 0.4 µM) it was 0.353; with CAP-232 + Trametinib (first compound 1.265 µM), 0.437; with CAP-232 + Trametinib (first compound 4 µM) it was 0.404; with CAP-232 + Trametinib (first compound 12.65 µM), 0.422. The relative viability in the test with CAP-232 + Luminespib (first compound 0.4 µM) turned out to be 0.709; with CAP-232 + Luminespib (first compound 1.265 µM), 0.695; with CAP-232 + Luminespib (first compound 4 µM), 0.78; with CAP-232 + Luminespib (first compound 12.65 µM) it was 0.667; with CAP-232 + Lapatinib (first compound 0.4 µM), 0.942; with CAP-232 + Lapatinib (first compound 1.265 µM), 0.729. Moreover, the values for the relative viability with CAP-232 + Lapatinib (first compound 4 µM) and with CAP-232 + Lapatinib (first compound 12.65 µM) were 0.998 and 0.773, respectively.
On to NCI-H1975, for which the relative viability is 0.664 with CAP-232 + Palbociclib (first compound 0.4 µM); 0.486 with CAP-232 + Palbociclib (first compound 1.265 µM); 0.74 in the test with CAP-232 + Palbociclib (first compound 4 µM); 0.324 with CAP-232 + Palbociclib (first compound 12.65 µM); 0.262 with CAP-232 + Pictilisib (first compound 0.4 µM); 0.261 with CAP-232 + Pictilisib (first compound 1.265 µM). Moreover, the relative viability amounted to 0.313 with CAP-232 + Pictilisib (first compound 4 µM); 0.191 with CAP-232 + Pictilisib (first compound 12.65 µM); 0.368 with CAP-232 + Trametinib (first compound 0.4 µM); 0.262 with CAP-232 + Trametinib (first compound 1.265 µM); 0.743 with CAP-232 + Trametinib (first compound 4 µM); 0.225 with CAP-232 + Trametinib (first compound 12.65 µM). Moreover, the relative viability came to 0.256 with CAP-232 + Luminespib (first compound 0.4 µM); 0.195 with CAP-232 + Luminespib (first compound 1.265 µM); 0.195 in the test with CAP-232 + Luminespib (first compound 4 µM); 0.185 in the test with CAP-232 + Luminespib (first compound 12.65 µM); 1.03 with CAP-232 + Lapatinib (first compound 0.4 µM); 0.867 with CAP-232 + Lapatinib (first compound 1.265 µM). In addition, the relative viability in the test with CAP-232 + Lapatinib (first compound 4 µM) was 1.11; in the test with CAP-232 + Lapatinib (first compound 12.65 µM) it was 0.583.
With NCI-H1993, the relative viability was determined as 0.701 in the test with CAP-232 + Palbociclib (first compound 0.4 µM); 0.586 with CAP-232 + Palbociclib (first compound 1.265 µM); 0.62 with CAP-232 + Palbociclib (first compound 4 µM); 0.602 with CAP-232 + Palbociclib (first compound 12.65 µM); 0.887 with CAP-232 + Pictilisib (first compound 0.4 µM); 0.935 with CAP-232 + Pictilisib (first compound 1.265 µM). Also, the relative viability came to 0.977 with CAP-232 + Pictilisib (first compound 4 µM); 0.768 in the test with CAP-232 + Pictilisib (first compound 12.65 µM); 0.443 in the test with CAP-232 + Trametinib (first compound 0.4 µM); 0.491 in the test with CAP-232 + Trametinib (first compound 1.265 µM); 0.589 in the test with CAP-232 + Trametinib (first compound 4 µM); 0.429 in the test with CAP-232 + Trametinib (first compound 12.65 µM). Besides, the relative viability with CAP-232 + Luminespib (first compound 0.4 µM) is 0.735; with CAP-232 + Luminespib (first compound 1.265 µM), 0.882; with CAP-232 + Luminespib (first compound 4 µM), 0.99; with CAP-232 + Luminespib (first compound 12.65 µM), 0.831; with CAP-232 + Lapatinib (first compound 0.4 µM), 0.877; in the test with CAP-232 + Lapatinib (first compound 1.265 µM) it was 0.791. For the same cell line, the relative viability was determined as 0.915 with CAP-232 + Lapatinib (first compound 4 µM) and 0.673 with CAP-232 + Lapatinib (first compound 12.65 µM).
Turning to NCI-H2009, the relative viability with CAP-232 + Palbociclib (first compound 0.4 µM) came out at 0.181; with CAP-232 + Palbociclib (first compound 1.265 µM) it was 0.244; with CAP-232 + Palbociclib (first compound 4 µM) it was 0.175; in the test with CAP-232 + Palbociclib (first compound 12.65 µM) it was 0.153; with CAP-232 + Pictilisib (first compound 0.4 µM), 0.711; with CAP-232 + Pictilisib (first compound 1.265 µM) it was 0.728. Moreover, the relative viability in the test with CAP-232 + Pictilisib (first compound 4 µM) worked out at 0.88; with CAP-232 + Pictilisib (first compound 12.65 µM), 0.478; with CAP-232 + Trametinib (first compound 0.4 µM), 0.237; with CAP-232 + Trametinib (first compound 1.265 µM), 0.251; in the test with CAP-232 + Trametinib (first compound 4 µM), 0.247; in the test with CAP-232 + Trametinib (first compound 12.65 µM), 0.301. For the same cell line, the relative viability with CAP-232 + Luminespib (first compound 0.4 µM) was 1.02; with CAP-232 + Luminespib (first compound 1.265 µM), 0.975; with CAP-232 + Luminespib (first compound 4 µM) it was 1; in the test with CAP-232 + Luminespib (first compound 12.65 µM) it was 0.95; in the test with CAP-232 + Lapatinib (first compound 0.4 µM), 1.02; with CAP-232 + Lapatinib (first compound 1.265 µM), 0.896. Also, the relative viability with CAP-232 + Lapatinib (first compound 4 µM) amounted to 0.913; with CAP-232 + Lapatinib (first compound 12.65 µM), 0.848.
On to NCI-H2023, for which the relative viability with CAP-232 + Palbociclib (first compound 0.4 µM) is 0.377; in the test with CAP-232 + Palbociclib (first compound 1.265 µM), 0.353; in the test with CAP-232 + Palbociclib (first compound 4 µM), 0.346; with CAP-232 + Palbociclib (first compound 12.65 µM), 0.157; with CAP-232 + Pictilisib (first compound 0.4 µM), 0.253; with CAP-232 + Pictilisib (first compound 1.265 µM), 0.231. In addition, the relative viability with CAP-232 + Pictilisib (first compound 4 µM) was determined as 0.271; in the test with CAP-232 + Pictilisib (first compound 12.65 µM), 0.133; with CAP-232 + Trametinib (first compound 0.4 µM) it was 0.656; with CAP-232 + Trametinib (first compound 1.265 µM), 0.555; with CAP-232 + Trametinib (first compound 4 µM), 0.48; with CAP-232 + Trametinib (first compound 12.65 µM), 0.205. In addition, the relative viability in the test with CAP-232 + Luminespib (first compound 0.4 µM) stood at 0.917; with CAP-232 + Luminespib (first compound 1.265 µM), 0.725; with CAP-232 + Luminespib (first compound 4 µM) it was 0.69; in the test with CAP-232 + Luminespib (first compound 12.65 µM), 0.232; in the test with CAP-232 + Lapatinib (first compound 0.4 µM), 0.743; in the test with CAP-232 + Lapatinib (first compound 1.265 µM) it was 0.761. Besides, the relative viability was 0.797 with CAP-232 + Lapatinib (first compound 4 µM) and 0.38 with CAP-232 + Lapatinib (first compound 12.65 µM).
